Assay [1] has as its target T1, human xanthine oxidase (Homo sapiens, UniProt P47989).
T1 construct: purchased Sigma (sigma-aldrich.co, USA) MAK078
In words: In vitro xanthine oxidase inhibitory activity (XO activity assay kit, H2O2 read at 570 nm). It is filed as biochemical. Particulars: 25 °C, xanthine substrate, allopurinol positive control; read-out: IC50 xanthine oxidase inhibition. The method, then: For this research, the analytical grade chemicals necessary for synthesis and antioxidant activity were purchased from Hi-media Laboratories. The in vitro evaluation of the human xanthine oxidase inhibitory activity was performed by measuring hydrogen peroxide (H2O2) production from oxidation of […], utilizing the human xanthine oxidase assay kit (Sigma USA). The progress of reaction was observed through thin layer chromatography (TLC) on 0.25 mm precoated silica gel plates purchased from Merck, reaction spots were envisaged in iodine compartment and UV. Melting points were measured using a Sonar melting point apparatus and uncorrected. ^1H NMR and ^13C NMR spectra were documented in DMSO and deuterated CDCl3 respectively on Bruker Avance II 400 NMR spectrometer at the frequency of 400 MHz using tetramethylsilane standard (downfield) moreover chemical shifts were expressed in ppm (δ) using the residual solvent line as internal standard. Infrared (IR) spectra were recorded on Perkin Elmer FTIR spectrophotometer by utilizing KBr pellets system.
The method opted to evaluate the inhibitory potential of hesperitin derivatives was a modified protocol of Sigma, done by UV-spectrophotometric method by using xanthine oxidase activity assay kit purchased from sigma (MAK078, sigma-aldrich.co, USA). The colorimetric product obtained in the form of hydrogen peroxide generated during the oxidation of XO was determined by a coupled enzyme technique, measured at 570 nm in a 96-well plate, using the plate reader EPOCH™ “MICROPLATE READER (BIOTEK)”. One unit of XO is defined as the amount of enzyme that catalyzes the oxidation of xanthine substrate, yielding 1.0 µmol of uric acid and hydrogen peroxide per minute at 25 °C. Reagents used were 44 µL of xanthine oxidase assay buffer, 2 µL xanthine substrate solution and 2 µL of xanthine oxidase enzyme solution. All the solutions mentioned above were mixed to prepare reaction mixture. The different concentrations of synthesized derivatives having final volume 50 µL were prepared in dimethyl sulfoxide (DMSO) and added to 96 well plate. To each well 50 µL of reaction mix was added and mixed well. After 2–3 min initial measurement was taken. The plates were incubated at 25 °C taking measurements at every 5 min.

Assay [2] is described as follows: Hydrogen peroxide scavenging (H2O2) assay. Particulars: phosphate buffer pH 7.4, 230 nm, 10 min; L-ascorbic acid standard; read-out: IC50 ± SEM (hydrogen peroxide assay). As to the method:
To compare and best evaluate the antioxidant potential of newly synthesized hesperitin derivatives, hydrogen peroxide assay was performed by the method described by Patel et al. with some modifications. The solution of H2O2 (100 mM) was prepared via the adding up different concentrations of synthesized derivatives ranging from 5 to 80 μg/mL to H2O2 solution (2 mL), prepared in 20 mM phosphate buffer of pH 7.4. Finally, the absorbance of H2O2 was measured at 230 nm after incubating for 10 min next to a blank reading of phosphate buffer without H2O2. For every measurement, a fresh reading of blank was taken to carry out background correction. For control sample containing H2O2 was scanned for absorbance at 230 nm. Results calculated as percentage of hydrogen peroxide inhibition was estimated by the formula [(Ab − At)/[…]] × 100, where Ab is the absorbance of the control and At is the absorbance of compounds/standard taken as L-ascorbic acid (5–80 μg/mL) are shown in Table 3.

A short description of assay [3]: Antioxidant activity by DPPH method. Particulars: methanol, 37 °C, 517 nm; ascorbic acid positive control; read-out: IC50 ± SEM (DPPH assay). The method, then:
The antioxidant potential of hesperitin derivatives was performed by DPPH method evaluated in the form of IC50 estimated using the ELISA plate reader EPOCH™ “MICROPLATE READER (BIOTEK)”. This method opted for evaluation of free radical scavenging activity of DPPH was base on modified procedure described by Dhiman et al.. The tested compounds were prepared in methanolic solution and reacted with methanolic solution of DPPH at 37 °C. The reaction mixture was prepared in 96-well plate by adding 50 µL of sample, 50 µL […] of methanol and 50 µL of DPPH solution prepared in 0.1 mM in methanol. The mechanism of action of DPPH assay was based on the fact that DPPH radical get reduced during its reaction with an antioxidant compound and results in changes of color (from deep violet to light yellow). The absorbance was read at 517 nm for 30 min at an interval of 5 min of using ELISA microplate reader. The mixture of methanol (5.0 mL) and tested compounds (0.2 mL) serve as blank. Ascorbic acid served as positive control.

Assay [4] concerns xanthine oxidase. In words: Enzyme kinetic analysis for XO-inhibitory activity (Michaelis-Menten, Lineweaver-Burk). It is filed as biochemical, human. To be noted: without inhibitor 117.6. As to the method:
Firstly Michaelis–Menten curve was plotted for the enzyme activity at different concentrations of HET4 against different concentration of xanthine substrate (Fig. 6).
Then double reciprocal plot (Lineweaver–Burk) analysis was done in the presence (0.25, 0.5, and 1.0 µM) and absence of HET4 from in vitro data generated during the oxidation of xanthine in presence of xanthine oxidase (Fig. 7). The x- and y-axis intercepts of the Lineweaver–Burk plot were utilized to calculate Km and Vmax values of HET4 at different concentrations (Table 2).

The structures appear in SMILES notation.

xanthine oxidase, sequence (P47989 whole entry): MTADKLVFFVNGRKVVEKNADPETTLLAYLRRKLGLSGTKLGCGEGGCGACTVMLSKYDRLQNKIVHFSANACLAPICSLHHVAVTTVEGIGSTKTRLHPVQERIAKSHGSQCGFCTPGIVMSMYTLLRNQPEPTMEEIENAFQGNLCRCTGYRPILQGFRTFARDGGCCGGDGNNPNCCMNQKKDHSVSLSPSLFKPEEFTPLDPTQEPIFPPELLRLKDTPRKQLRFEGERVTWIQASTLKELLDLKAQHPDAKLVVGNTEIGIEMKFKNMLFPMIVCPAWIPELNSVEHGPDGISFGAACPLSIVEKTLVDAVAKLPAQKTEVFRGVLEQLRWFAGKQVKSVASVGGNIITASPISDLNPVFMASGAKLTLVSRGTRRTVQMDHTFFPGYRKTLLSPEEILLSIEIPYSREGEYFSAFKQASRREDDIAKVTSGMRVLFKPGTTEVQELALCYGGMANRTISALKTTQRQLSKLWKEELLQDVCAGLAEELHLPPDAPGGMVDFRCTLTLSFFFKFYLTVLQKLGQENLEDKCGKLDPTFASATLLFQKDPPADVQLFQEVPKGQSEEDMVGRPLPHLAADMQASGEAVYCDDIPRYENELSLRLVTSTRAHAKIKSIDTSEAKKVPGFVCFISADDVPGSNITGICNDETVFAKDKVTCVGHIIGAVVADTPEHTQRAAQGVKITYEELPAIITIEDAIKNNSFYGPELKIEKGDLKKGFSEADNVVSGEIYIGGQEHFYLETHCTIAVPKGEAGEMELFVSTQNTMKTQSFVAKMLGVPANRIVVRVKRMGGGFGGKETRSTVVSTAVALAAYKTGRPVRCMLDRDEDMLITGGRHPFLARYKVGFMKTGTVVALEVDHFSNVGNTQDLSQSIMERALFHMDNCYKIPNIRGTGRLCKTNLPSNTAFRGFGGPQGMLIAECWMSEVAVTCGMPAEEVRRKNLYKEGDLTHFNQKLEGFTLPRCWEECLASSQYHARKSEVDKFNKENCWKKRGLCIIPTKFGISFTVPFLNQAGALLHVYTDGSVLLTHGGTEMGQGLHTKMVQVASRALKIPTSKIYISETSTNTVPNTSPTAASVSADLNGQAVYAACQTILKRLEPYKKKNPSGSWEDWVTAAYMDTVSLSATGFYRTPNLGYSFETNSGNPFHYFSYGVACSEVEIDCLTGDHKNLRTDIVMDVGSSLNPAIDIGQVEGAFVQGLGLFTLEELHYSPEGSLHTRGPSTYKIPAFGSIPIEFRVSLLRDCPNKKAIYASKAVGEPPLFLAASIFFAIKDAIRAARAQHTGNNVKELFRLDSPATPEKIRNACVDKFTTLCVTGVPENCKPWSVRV
T1 sequence (P47989 whole entry): as above

The term IC50 denotes the midpoint of a concentration-inhibition curve. For the compound `COc1ccc([C@@H]2CC(=O)c3c(OC)cc(OC(=O)c4ccccc4S)cc3O2)cc1OC` [HET2], the IC50 in assay [1] came to 23.2 ± 1.25 µM; in assay [2], 8.547 ± 0.06 µM; in assay [3] it was 6.71 ± 0.15 µM.

For the compound `COc1cc(C(=O)Oc2cc(OC)c3c(c2)O[C@H](c2ccc(OC)c(OC)c2)CC3=O)ccc1O` [HET6], the figures for the IC50 in assay [1], in assay [2] and in assay [3] were 11.7 µM, 7.51 ± 0.02 µM and 7.11 ± 0.13 µM, respectively.

Consider `COc1ccc([C@@H]2CC(=O)c3c(O)cc(O)cc3O2)cc1O` [Hesperitin], for which the half-inhibitory concentration (IC50) in assay [1] is 29.25 ± 0.12 µM; in assay [2] it was 14.43 ± 0.14 µM; in assay [3], 12.9 ± 0.2 µM.

On to `COc1ccc([C@@H]2CC(=O)c3c(OC)cc(OC(=O)c4cccnc4)cc3O2)cc1OC` [HET5], for which the IC50 stood at 10.8 µM in assay [1], 6.37 ± 0.26 µM in assay [2] and 4.82 ± 0.06 µM in assay [3].

For `COc1ccc([C@@H]2CC(=O)c3c(OC)cc(OC(=O)C(O)c4ccccc4)cc3O2)cc1OC` (some centres unmarked) [HET3], the figures for the IC50 in assay [1] and in assay [2] were 12.9 ± 0.72 µM and 3.322 ± 0.01 µM, respectively.

Turning to `COc1ccc([C@@H]2CC(=O)c3c(OC)cc(OC(=O)/C=C/c4ccc(O)c(O)c4)cc3O2)cc1OC` [HET4], the IC50 in assay [1] came to 9.09 µM; in assay [2], 4.642 ± 0.03 µM; in assay [3], 1.633 ± 0.01 µM. Moreover, the “Vmax of xanthine oxidase” value is 116.4 µmol/min in assay [4] (Conc. of HET4 0.25 µM), 112.2 µmol/min in assay [4] (Conc. of HET4 0.5 µM) and 103.7 µmol/min in assay [4] (Conc. of HET4 1.0 µM).

The values are drawn from paper PMC6661729, “In silico design and synthesis of hesperitin derivatives as new xanthine oxidase inhibitors” (BMC Chemistry, 2019).
